{"source": "paper PMC3965533", "about": "“Inhibition of Cathepsin B by E-64 Induces Oxidative Stress and Apoptosis in Filarial Parasite” (PLoS ONE, 2014)", "tested_on": "cathepsin B (cathepsin B like cysteine protease)"}
{"smiles": "CC(C)C[C@H](NC(=O)[C@H]1O[C@@H]1C(=O)O)C(=O)NCCCCNC(=N)N", "note": "[E-64, L-trans-Epoxysuccinyl-leucylamido (4-guanidino)butane]", "values": [{"measurement": "IC50", "value": 6, "unit": "µM"}]}
